Consider 19 compounds from ChEMBL document CHEMBL1153871, “Antiplasmodial and antitrypanosomal activities of aminobicyclo[2.2.2]octyl omega-aminoalkanoates” (Eur J Med Chem, 2009).

A value given as a limit tells only on which side of the number the result lay.

In one series the test system is Plasmodium falciparum. Kind of series: Antimalarial activity against chloroquine and pyrimethamine-resistant Plasmodium falciparum K1. In kind it is functional, organism-based.
Series [1] concerns Trypanosoma brucei rhodesiense. Put plainly: Antitrypanosomal activity against Trypanosoma brucei rhodesiense STIB900 by microplate assay. In kind it is functional, organism-based.
A further series relates to L6. Put plainly: Cytotoxicity against rat L6 cells. In kind it is cell-based.
Series [2] in a line: Selectivity index, ratio of IC50 for rat L6 cells to IC50 for Trypanosoma brucei rhodesiense STIB900. In kind it is toxicity, cell-based. As to conditions: read-out: Ratio IC50.

In the case of `CN(C)C12CC(OC(=O)CN3CCC(O)CC3)C(C(c3ccccc3)C1)C(c1ccccc1)C2` (racemic), the IC50 (as a rule, the concentration at which inhibition is half-maximal) in the series on Plasmodium falciparum (Plasmodium falciparum, K1) worked out at 2.16 µM; in series [1] (Trypanosoma brucei, STIB900), 2.06 µM; in the series on L6 (Rattus norvegicus, L6), 102 µM.

As to `O=C(CN1CCC(O)CC1)OC1CC2(N3CCCC3)CC(c3ccccc3)C1C(c1ccccc1)C2` (racemic), the 50% inhibitory concentration (IC50) worked out at 0.86 µM in the series with Plasmodium falciparum (Plasmodium falciparum, K1); 1.05 µM in series [1] (Trypanosoma brucei, STIB900); 93.4 µM in the series with L6 (Rattus norvegicus, L6).

In series [1] (Trypanosoma brucei, STIB900), `Nc1nc(N)nc(Nc2ccc([As]3SCC(CO)S3)cc2)n1` (stereo not given) [MELARSOPROL] registered an IC50 of 0.005 µM.

With `CCN(CC)CC(=O)OC1CC2(N3CCCCC3)CC(c3ccccc3)C1C(c1ccccc1)C2` (racemic), the concentration for half-maximal inhibition (IC50) with Plasmodium falciparum came to 0.77 µM; in series [1] it was 1.53 µM; in the series with L6 (l6), 61.3 µM.

Regarding `O=C(CCN1CCCCC1)OC1CC2(N3CCCCC3)CC(c3ccccc3)C1C(c1ccccc1)C2` (racemic), the concentration for half-maximal inhibition (IC50) is 0.26 µM in the series on Plasmodium falciparum (Plasmodium falciparum, K1); 0.91 µM in series [1] (Trypanosoma brucei, STIB900); 54.6 µM in the series on L6 (Rattus norvegicus, L6).

Turning to `O=C(CN1CCC(O)CC1)OC1CC2(N3CCCCC3)CC(c3ccccc3)C1C(c1ccccc1)C2` (racemic), the IC50 is 3.81 µM in series [1] (Trypanosoma brucei, STIB900) and > 179 µM in the series with L6 (Rattus norvegicus, L6).

For `CCN(CC)CCC(=O)OC1CC2(N(C)C)CC(c3ccccc3)C1C(c1ccccc1)C2` (racemic), the IC50 in the series on Plasmodium falciparum (Plasmodium falciparum, K1) was determined as 0.43 µM; in series [1] (Trypanosoma brucei, STIB900), 0.11 µM; with L6 (Rattus norvegicus, L6), 23.6 µM.

With `O=C(CCN1CCCC1)OC1CC2(N3CCCCC3)CC(c3ccccc3)C1C(c1ccccc1)C2` (racemic), the 50% inhibitory concentration (IC50) in the series with Plasmodium falciparum (Plasmodium falciparum, K1) came to 0.25 µM; in series [1] (Trypanosoma brucei, STIB900), 0.38 µM; with L6 (Rattus norvegicus, L6), 12.5 µM.

For the compound `O=C(CN1CCCCC1)OC1CC2(N3CCCCC3)CC(c3ccccc3)C1C(c1ccccc1)C2` (racemic), the IC50 with Plasmodium falciparum is 1.41 µM; in series [1], 5.42 µM; in the series with L6 (l6), > 185 µM.

For `CCN(CC)CCC(=O)OC1CC2(N3CCCC3)CC(c3ccccc3)C1C(c1ccccc1)C2` (racemic), the IC50 in the series on Plasmodium falciparum (Plasmodium falciparum, K1) amounted to 0.3 µM; in series [1] (Trypanosoma brucei, STIB900), 0.11 µM; with L6 (Rattus norvegicus, L6) it was 19.2 µM.

In the case of `CCN(CC)CCC(=O)OC1CC2(N3CCCCC3)CC(c3ccccc3)C1C(c1ccccc1)C2` (racemic), the IC50 is 0.19 µM in the series with Plasmodium falciparum (Plasmodium falciparum, K1); 0.15 µM in series [1] (Trypanosoma brucei, STIB900); 22.9 µM with L6 (Rattus norvegicus, L6).

Consider `CN(C)C12CC(OC(=O)CCN3CCC(O)CC3)C(C(c3ccccc3)C1)C(c1ccccc1)C2` (racemic), for which the IC50 in the series on Plasmodium falciparum (Plasmodium falciparum, K1) is 2.25 µM; in series [1] (Trypanosoma brucei, STIB900) it was 0.95 µM; in the series with L6 (Rattus norvegicus, L6), 89.2 µM.

For `O=C(CN1CCCC1)OC1CC2(N3CCCCC3)CC(c3ccccc3)C1C(c1ccccc1)C2` (racemic), the IC50 in the series with Plasmodium falciparum came out at 0.74 µM; in series [1], 0.88 µM; with L6 (l6) it was 52 µM.

Take `O=C(CCN1CCCCC1)OC1CC2(N3CCCC3)CC(c3ccccc3)C1C(c1ccccc1)C2` (racemic): the half-inhibitory concentration (IC50) with Plasmodium falciparum (Plasmodium falciparum, K1) was 0.28 µM; in series [1] (Trypanosoma brucei, STIB900), 0.31 µM; in the series with L6 (Rattus norvegicus, L6) it was 17.8 µM.

For the compound `O=C(CCN1CCC(O)CC1)OC1CC2(N3CCCC3)CC(c3ccccc3)C1C(c1ccccc1)C2` (racemic), the half-maximal inhibitory concentration (IC50) in the series on Plasmodium falciparum (Plasmodium falciparum, K1) came out at 1.91 µM; in series [1] (Trypanosoma brucei, STIB900) it was 1.43 µM; in the series on L6 (Rattus norvegicus, L6), 35.6 µM.

Take `O=C(CCN1CCC(O)CC1)OC1CC2(N3CCCCC3)CC(c3ccccc3)C1C(c1ccccc1)C2` (racemic): the IC50 with Plasmodium falciparum (Plasmodium falciparum, K1) stood at 0.17 µM; in series [1] (Trypanosoma brucei, STIB900), 0.98 µM; with L6 (Rattus norvegicus, L6), 28.5 µM.

As to `O=C(CCN1CCCC1)OC1CC2(N3CCCC3)CC(c3ccccc3)C1C(c1ccccc1)C2` (racemic), the 50% inhibitory concentration (IC50) was 0.37 µM in the series with Plasmodium falciparum (Plasmodium falciparum, K1); 0.12 µM in series [1] (Trypanosoma brucei, STIB900); 21.9 µM in the series on L6 (Rattus norvegicus, L6).

For `CN(C)C12CC(OC(=O)CCN3CCCCC3)C(C(c3ccccc3)C1)C(c1ccccc1)C2` (racemic), the IC50 was found to be 0.4 µM with Plasmodium falciparum (Plasmodium falciparum, K1); 0.21 µM in series [1] (Trypanosoma brucei, STIB900); 25.8 µM in the series on L6 (Rattus norvegicus, L6).

In the case of `CN(C)C12CC(OC(=O)CCN3CCCC3)C(C(c3ccccc3)C1)C(c1ccccc1)C2` (racemic), the selectivity ratio in series [2] amounted to 341. Moreover, the IC50 with Plasmodium falciparum (Plasmodium falciparum, K1) turned out to be 0.55 µM; in series [1] (Trypanosoma brucei, STIB900), 0.076 µM; with L6 (Rattus norvegicus, L6), 25.9 µM.
